Earlier results on one compound are cited in publication PMC9880028 (Drug Design, Development and Therapy, 2023).

In the data set the test system is WNK1. The note with it: read-out: IC50 (WNK1); only WNK1 inhibitor published when the screen was conducted; ref US Patent application US 2008/0286809 A1, Dario Alessi.

Consider `Cc1cc(O)c2c(=O)c3c(O)cc(O)c4c5c(O)cc(O)c6c(=O)c7c(O)cc(C)c8c1c2c(c34)c(c78)c65` [hypericin], for which the IC50 was 200 µM.

By IC50 is commonly meant the concentration that gives 50% inhibition.
